Like-named read-outs stand apart in the source and are kept apart here.
Experiments:
[1] = Pharmacokinetics of intravenous docetaxel with oral LC478 in rats; assay type: in vivo, Sprague–Dawley rats; conditions: for Vd: read-out: Vss
Method: For the intravenous study, rats were divided into three groups according to LC478 doses (0, 30, and 100 mg/kg LC478, respectively). […] To prevent blood clotting, 0.3 mL of 0.9% NaCl-injectable solution containing heparin (20 U/mL) was flushed into each cannula immediately after each blood sampling. […] At this time, each rat was sacrificed by withdrawing blood via a heart puncture, and then the entire gastrointestinal tract (including its contents and feces) was extracted and transferred into a beaker. […] A 100 μL aliquot of the supernatant was collected from each beaker.

in vivo = conditions: for Funabs (true unabsorbed fraction) / absorbed fraction in the gastrointestinal tract: 24 h
Excerpt: Male Sprague–Dawley rats at 6–9 weeks old (weighing 200–260 g) were purchased from Charles River Company Korea (Orient, Seoul, Korea). […] All rats were maintained in the same conditions as a reported method.
For the oral study, after overnight fasting with free access to water, rats were divided into three subgroups according to the doses of LC478 administered, which were the same as in the intravenous study. […] Other procedures were followed to the intravenous study.
Based on the standard methods, we calculated the following pharmacokinetic parameters using non-compartmental analysis (WinNonlin®; Professional Edition version 2.1; Pharsight, Mountain View, CA, USA): The total area under the plasma concentration–time curve from time zero to last blood sampling time (AUClast) or time infinity (AUCinf) by log-linear trapezoidal extrapolation method, terminal half-life, time-averaged total body, renal, and non-renal clearances (CL, CLR, and CLNR, respectively), mean residence time (MRT), apparent volume of distribution at a steady state (Vss), apparent oral clearance (CL/F), and apparent volume of distribution during elimination (Vz/F). We directly read the peak plasma concentration (Cmax) and time to reach Cmax (Tmax) from the experimental data.
The absorbed fraction of oral dose (Fabs), absolute bioavailability (F), and relative bioavailability (Frel) were calculated by the following equations. (1) F (%)=AUCinf, p.o/AUCinf, i.v×100 (2) Frel (%)=AUCinf with LC478/AUCinf without LC478×100 (3) GI24 h, p.o/100=(1−Fabs)+(F/100×GI24 h, i.v./100)

[2] = Disappearance of docetaxel in rat hepatic microsomes with LC478; assay type: in vitro ADME; conditions: hepatic microsomes
Method: (§1) The hepatic and intestinal microsomes were prepared based on a similar reported method.
(§2) Adding 0.1 M phosphate buffer (pH 7.4) adjusted the total volume as 0.5 mL, and then the components were incubated at 37 °C using a thermomixer at 500 opm. After incubation of 15 and 30 min for the hepatic and intestinal microsomes, respectively, 1 mL of acetonitrile with 5 µg/mL of paclitaxel as an internal standard added to terminate the reaction.
(§3) The unweighted kinetic data from rat hepatic and intestinal microsomes were fitted using a single-site Michaelis–Menten Equation V = Vmax × [S]/(Km + [S])(4) where [S] is the substrate concentration, Vmax is maximal velocity, and Km is substrate concentration for half-maximal velocity. The CLint was calculated by dividing the Vmax by the Km.

[3] = Disappearance of docetaxel in rat intestinal microsomes with LC478; assay type: in vitro ADME; conditions: intestinal microsomes
Method: as §1, §2, §3

[4] = Rat plasma protein binding of docetaxel by equilibrium dialysis; assay type: in vitro ADME; conditions: equilibrium dialysis
Method: A 1 mL of the plasma was dialyzed against 1 mL of isotonic Sørensen phosphate buffer (pH 7.4) containing 3% dextran (w/v) in a dialysis cell (Spectrum Medical Industries, Laguna Hills, CA, USA) using a Spectra/Por 4 membrane (mol. wt. cutoff 12−14 KDa; Spectrum Medical Industries, USA).

[5] = male, Sprague-Dawley, rat, plasma, iv, 20 mg/kg, rats, docetaxel 20 mg/kg intravenous, with 0 mg/kg LC478
[6] = male, Sprague-Dawley, rat, plasma, iv, 20 mg/kg, rats, docetaxel 20 mg/kg intravenous, with 30 mg/kg oral LC478
[7] = male, Sprague-Dawley, rat, plasma, iv, 20 mg/kg, rats, docetaxel 20 mg/kg intravenous, with 100 mg/kg oral LC478
[8] = rats, docetaxel 20 mg/kg intravenous, with 0 mg/kg LC478
[9] = rats, docetaxel 20 mg/kg intravenous, with 30 mg/kg oral LC478
[10] = rats, docetaxel 20 mg/kg intravenous, with 100 mg/kg oral LC478
[11] = male, Sprague-Dawley, rat, in vivo, po, 20 mg/kg
[12] = male, Sprague-Dawley, rat, in vivo, po, 30 mg/kg
[13] = male, Sprague-Dawley, rat, in vivo, po, 100 mg/kg

CC(=O)O[C@@]12CO[C@@H]1C[C@H](O)[C@@]1(C)C(=O)[C@H](O)C3=C(C)[C@@H](OC(=O)[C@H](O)[C@@H](NC(=O)OC(C)(C)C)c4ccccc4)C[C@@](O)([C@@H](OC(=O)c4ccccc4)[C@H]21)C3(C)C [docetaxel]
Ae0–24 h ([1]; bound over all LC478 groups): less than 1.56 % of dose
contribution of CLR to CL ([1]; bound over all LC478 groups): less than 1.56%
Ae0–24 h smaller by ([1]; intravenous docetaxel, 100 mg/kg LC478 vs 0 mg/kg LC478): 31.1%
Ae0–24 h smaller by ([1]; intravenous docetaxel, 100 mg/kg LC478 vs 30 mg/kg LC478): 37.2%
CLR slower by ([1]; intravenous docetaxel, 100 mg/kg LC478 vs without LC478): 40%
GI24 h ([1]; intravenous docetaxel, bound over all LC478 groups): less than 1.76 % of the intravenous dose
AUC(0-inf) [1, 5]: 4420 ng·h/mL
AUC(0-t) [1, 5]: 4220 ng·h/mL
CL renal [1, 5]: 1.13 ± 0.431 mL/min/kg
MRT [1, 5]: 57.9 min
clearance [1, 5]: 78.4 ± 13.1 mL/min/kg
Vd [1, 5]: 4.57 ± 1.03 L/kg
AUC(0-inf) [1, 6]: 5050 ng·h/mL
AUC(0-t) [1, 6]: 4830 ng·h/mL
CL renal [1, 6]: 1.06 ± 0.235 mL/min/kg
MRT [1, 6]: 58 min
clearance [1, 6]: 67.9 ± 11.7 mL/min/kg
half-life ([1]; male, Sprague-Dawley, rat, plasma, iv, 20 mg/kg, rats, docetaxel 20 mg/kg intravenous, with 30 mg/kg oral LC478, read-out: Terminal half-life): 144 ± 37.6 min
Vd [1, 6]: 4.02 ± 1.36 L/kg
AUC(0-inf) [1, 7]: 4580 ng·h/mL
AUC(0-t) [1, 7]: 4470 ng·h/mL
CL renal [1, 7]: 0.678 ± 0.253 mL/min/kg
MRT [1, 7]: 67.1 min
clearance [1, 7]: 70.4 ± 9.1 mL/min/kg
Vd [1, 7]: 4.91 ± 1.44 L/kg
Ae0–24 h [1, 8]: 1.42 ± 0.418 % of dose
CLNR [1, 8]: 77.2 ± 12.8 mL/min/kg
GI24 h [1, 8]: 0.881 ± 0.411 % of dose
Ae0–24 h [1, 9]: 1.56 ± 0.129 % of dose
CLNR [1, 9]: 66.8 ± 11.4 mL/min/kg
Frel [1, 9]: 114%
GI24 h [1, 9]: 1.01 ± 0.731 % of dose
Ae0–24 h [1, 10]: 0.979 ± 0.365 % of dose
CLNR [1, 10]: 69.7 ± 9.13 mL/min/kg
Frel [1, 10]: 104%
GI24 h [1, 10]: 1.76 ± 0.958 % of dose
CLR,fu (CLR considering the free fraction in plasma) (in vivo; male, Sprague-Dawley, rat, in vivo): 5.04 mL/min/kg
CLR,fu (CLR considering the free fraction in plasma) (in vivo; male, Sprague-Dawley, rat, in vivo, 30 mg/kg): 5.15 mL/min/kg
CLR,fu (CLR considering the free fraction in plasma) (in vivo; male, Sprague-Dawley, rat, in vivo, 100 mg/kg): 2.55 mL/min/kg
CLR (in vivo; [11]): 3.43 ± 1.15 mL/min/kg
Tmax (in vivo; [11]): 15 min
AUC(0-t) (in vivo; male, Sprague-Dawley, rat, in vivo, po, 20 mg/kg, AUClast): 82.8 ng·h/mL
CL/F (in vivo; male, Sprague-Dawley, rat, in vivo, po, 20 mg/kg, CL/F): 3040 ± 805 mL/min/kg
CL renal (in vivo; male, Sprague-Dawley, rat, in vivo, po, 20 mg/kg, CLR): 3.5 ± 1.1 mL/min/kg
Vd/F (in vivo; male, Sprague-Dawley, rat, in vivo, po, 20 mg/kg, Vz/F): 670 ± 170 L/kg
Funabs (true unabsorbed fraction) (in vivo; [12]): 36.5%
absorbed fraction in the gastrointestinal tract (in vivo; [12]): 0.635
F increased by (in vivo; [13]): 102%
Frel increased by (in vivo; [13]): 109%
Funabs (true unabsorbed fraction) (in vivo; [13]): 20.0%
absorbed fraction in the gastrointestinal tract (in vivo; [13]): 0.801
Tmax (in vivo; rats, docetaxel 20 mg/kg oral, with 30 mg/kg oral LC478): 30 (15−30) min
Vmax for disappearance of docetaxel ([2]; 5 µM LC478): 0.438 ± 0.0578 nmol/min/mg protein
Vmax for disappearance of docetaxel ([2]; 10 µM LC478): 0.427 ± 0.0411 nmol/min/mg protein
Vmax for disappearance of docetaxel ([3]; 0 µM LC478): 0.109 ± 0.0502 nmol/min/0.3 mg protein
Vmax for disappearance of docetaxel ([3]; 1 µM LC478): 0.133 ± 0.0343 nmol/min/0.3 mg protein
Vmax for disappearance of docetaxel ([3]; 5 µM LC478): 0.133 ± 0.0737 nmol/min/0.3 mg protein
Vmax for disappearance of docetaxel ([3]; 10 µM LC478): 0.105 ± 0.0355 nmol/min/0.3 mg protein
Bound fraction to fresh rat plasma ([4]; with 0 μg/mL LC478): 30.6% ± 11.5%
Bound fraction to fresh rat plasma ([4]; with 0.1 μg/mL LC478): 33.4% ± 3.59%
Bound fraction to fresh rat plasma ([4]; with 10 μg/mL LC478): 29.7% ± 10.1%

Source: PMC6471177 (Pharmaceutics, 2019)
